Experiments:
[1] = in vivo PK studies in rats (single dose IV and p.o.); conditions: rat, 10 mg/kg
Method: Various formulations were investigated in in vivo PK studies in rats to determine the optimal oral formulation for dosing to animals and humans.
The compound of Formula I was administered to rats by IV at a dosage of 10 mg/kg. The vehicle comprised 15% hydroxypropyl beta cyclodextrin (Kelptose HPB parenteral grade), 5% DMSO and water for injection. The formulation was filtered using a ≤0.22 μm polyethersulfone (PES) membrane filter prior to use. The dose volume administered was 5 mL/kg. 0.2 mL blood samples from the sublingal vein under isoflurane anaesthesia were obtained 5 minutes after IV administration and stored in EDTA. Plasma was separated by centrifugation (1500×g, 10 mins, ca. 4° C.) and was frozen at −70° C. prior to analysis. Analysis to calculate plasma concentration of the compound of Formula I was conducted by LC-MS/MS. […] The AUCIV value was subsequently used to calculate the bioavailability of example oral formulations as described above.
A crystalline sample of the compound of Formula I was formulated in PEG300. The formulation was dosed p.o. (gavage) to rats at 10 mg/kg (dose volume=5 mL/kg). 0.2 mL blood samples from the sublingal vein under isoflurane anaesthesia were obtained 15 minutes after oral administration and stored in EDTA. Samples were then taken 0.5, 1, 2, 4, 8, 12 and 24 hours post-dose.

[2] = in vivo PK studies in cynomolgus monkeys (single dose IV and p.o.); conditions: both sexes, cynomolgus monkey, 10 mg/kg
Method: Various formulations were investigated in in vivo PK studies in cynomolgus monkeys to determine the optimal oral formulation for dosing to animals and humans.
The compound of Formula I was administered to male and female cynomolgus monkeys by IV at a dosage of 10 mg/kg. The IV formulation was as described in Example 3. […] The AUCIV value was subsequently used to calculate the bioavailability of example oral formulations as described above.
Studies were conducted using Formulation 2 as described above. The compound of Formula I was administered p.o. to male and female cynomolgus monkeys at a dose level of 10 mg/kg. (dose volume 5 mL/kg). 2 mL blood samples were obtained 5 minutes via femoral puncture (vein/artery) into commercially available K2EDTA tubes using 23G needles coupled to a suitable syringe. Samples were taken 0.25, 0.5, 1, 2, 4, 8, 12 and 24 hours after administration of the formulation. Blood samples were kept on ice until centrifugation at 1600×g (10 mins, ca. 5° C.) to separate plasma. Analysis to calculate plasma concentration of the compound of Formula I was conducted by LC-MS/MS.
Studies were conducted using Formulation 5 as described in Example 3. […]

[3] = system: A. niger; conditions: cited from earlier work
[4] = system: A. fumigatus; conditions: cited from earlier work
[5] = system: A. terreus; conditions: cited from earlier work
[6] = system: A. flavus; conditions: cited from earlier work
[7] = system: A. terreus 49; conditions: cited from earlier work
[8] = system: A. fumigatus 210; conditions: cited from earlier work
[9] = system: S. apiospermum 13486; conditions: cited from earlier work
[10] = system: S. apiospermum 15848; conditions: cited from earlier work
[11] = system: S. apiospermum 451; conditions: cited from earlier work
[12] = system: S. apiospermum 4883; conditions: cited from earlier work
[13] = system: S. apiospermum 7935; conditions: cited from earlier work
[14] = system: S. apiospermum 8353; conditions: cited from earlier work
[15] = system: S. prolificans 18389; conditions: cited from earlier work
[16] = system: S. prolificans 206; conditions: cited from earlier work
[17] = system: S. prolificans 6322; conditions: cited from earlier work
[18] = system: S. prolifican 201; conditions: cited from earlier work
[19] = system: S. prolifican 13486; conditions: cited from earlier work
[20] = system: S. prolifican 7935; conditions: cited from earlier work
[21] = system: S. prolifican 15848; conditions: cited from earlier work
[22] = system: S. prolifican 8353; conditions: cited from earlier work
[23] = system: S. prolifican 451; conditions: cited from earlier work
[24] = system: S. prolifican 4883; conditions: cited from earlier work
[25] = system: S. prolifican 15849; conditions: cited from earlier work
[26] = system: S. prolifican 1121; conditions: cited from earlier work
[27] = system: S. apiospermum 1124; conditions: cited from earlier work
[28] = system: S. dehoogii; conditions: cited from earlier work
[29] = system: S. boydii; conditions: cited from earlier work
[30] = system: S. aurantiacum; conditions: cited from earlier work
[31] = system: invasive aspergillosis; conditions: mouse; orally by gavage; not the formulations of the present invention; cited from earlier work
[32] = system: A. fumigatus; conditions: A. fumigatus infected mice; orally by gavage; cited from earlier work
[33] = system: Lomentospora prolificans FMR 3569; conditions: mice infected with Lomentospora prolificans FMR 3569; relative to voriconazole; orally by gavage; cited from earlier work

For `Cc1cc(-c2ccccc2)c(C(=O)C(=O)Nc2ccc(N3CCN(c4ncc(F)cn4)CC3)cc2)n1C` [compound of Formula I, 2-(1,5-dimethyl-3-phenyl-1H-pyrrol-2-yl)-N-(4-(4-(5-fluoropyrimidin-2-yl)piperazin-1-yl)phenyl)-2-oxoacetamide], the AUC [1] is given as 13500 ng·h/mL, the AUC [2] is given as 18000 ng·h/mL and the “MIC band (RPMI medium)” value [3] is given as “C (0.01 < MIC ≤ 0.02)”. For the same molecule, the “MIC band (RPMI medium)” value [4] was “C (0.01 < MIC ≤ 0.02)”, the “MIC band (RPMI medium)” value [5] was “A (MIC ≤ 0.005)” and the “MIC band (RPMI medium)” value [6] was “B (0.005 < MIC ≤ 0.01)”. For the same molecule, the “MIC band (RPMI medium)” value [7] was “A (MIC ≤ 0.005)”, the “MIC band (RPMI medium)” value [8] was “C (0.01 < MIC ≤ 0.02)” and the “MIC band (RPMI medium)” value [9] was “D (0.02 < MIC ≤ 0.04)”. For the same molecule, the “MIC band (RPMI medium)” value [10] was “D (0.02 < MIC ≤ 0.04)”, the “MIC band (RPMI medium)” value [11] was “B (0.005 < MIC ≤ 0.01)” and the “MIC band (RPMI medium)” value [12] was “C (0.01 < MIC ≤ 0.02)”. The “MIC band (RPMI medium)” value [13] was “C (0.01 < MIC ≤ 0.02)”, the “MIC band (RPMI medium)” value [14] was “B (0.005 < MIC ≤ 0.01)” and the “MIC band (RPMI medium)” value [15] was “C (0.01 < MIC ≤ 0.02)”. For the same molecule, the “MIC band (RPMI medium)” value [16] was “D (0.02 < MIC ≤ 0.04)”, the “MIC band (RPMI medium)” value [17] was “D (0.02 < MIC ≤ 0.04)” and the “MIC band (RPMI medium)” value [18] was “D (0.02 < MIC ≤ 0.04)”. For the same molecule, the “MIC band (RPMI medium)” value [19] was “D (0.02 < MIC ≤ 0.04)”, the “MIC band (RPMI medium)” value [20] was “C (0.01 < MIC ≤ 0.02)” and the “MIC band (RPMI medium)” value [21] was “D (0.02 < MIC ≤ 0.04)”. The “MIC band (RPMI medium)” value [22] was “B (0.005 < MIC ≤ 0.01)”, the “MIC band (RPMI medium)” value [23] was “B (0.005 < MIC ≤ 0.01)” and the “MIC band (RPMI medium)” value [24] was “C (0.01 < MIC ≤ 0.02)”. The “MIC band (RPMI medium)” value [25] was “E (0.04 < MIC ≤ 0.06)”, the “MIC band (RPMI medium)” value [26] was “A (MIC ≤ 0.005)” and the “MIC band (RPMI medium)” value [27] was “A (MIC ≤ 0.005)”. For the same molecule, the antifungal activity [28] was “good antifungal activity”, the antifungal activity [29] was “good antifungal activity” and the antifungal activity [30] was “good antifungal activity”. For the same molecule, the “efficacy in murine models of invasive aspergillosis” value [31] was “excellent efficacy”, the galactomannan indices [32] was “reduce galactomannan indices” and the survival [33] was “increase survival”.

— patent US10973821B2, “Pharmaceutical formulation” (priority 2016, dated 2021)
